Assay results: patent publication EP3329923A1, “THE POTENTIAL OF CRBN-INDEPENDENT IMID RESENSITIZATION BY EPIGENETIC THERAPY” (University of Copenhagen, priority 2016, dated 2018)

What was measured:
[1] = test system: all IMiD-resistant cell lines; assay: Resensitization to IMiDs after 48 hours epidrug pretreatment, apoptosis and cell cycle assays; type: cell-based, human; conditions: epidrug pretreatment for 48 hours, then no treatment vs. 10 µM lenalidomide or pomalidomide; panobinostat as monotherapy or combined with 5-Azacytidine or EPZ-6438
[2] = test system: CRBN; assay: CRBN expression by qPCR after epidrug treatment; conditions: OPM2-LR and OPM2-PR, monotherapy and combination (Figure 13A)
[3] = test system: EZH2; conditions: EZH2 over EZH1; cited from earlier work
[4] = test system: OPM2-PR; assay: Apoptosis assay (Annexin V and PI), resensitization to IMiDs; conditions: epidrug treatment 48 hours, then 10 µM lenalidomide or 10 µM Pomalidomide for 3 days (Figure 11B)
Protocol: Cell proliferation (and IC50 for each cell line) was assessed by measuring 2,3-Bis-(2-Methoxy-4-Nitro-5-Sulfophenyl)-2H-Tetrazolium-5-Carboxanilide (XTT) dye absorbance 3 days after treatment with IMiDs. Cell apoptosis was evaluated using Annexin V and PI, with the analysis performed on a FACS-Calibur (BD Bioscience).

[5] = test system: JJN3; assay: Apoptosis assay, epigenetic sensitization in intrinsic IMiD resistance; conditions: JJN3, baseline IMiD resistance (Figure 13C)
Protocol: (§3) Cell apoptosis was evaluated using Annexin V and PI, with the analysis performed on a FACS-Calibur (BD Bioscience).
(§4) The present inventors then went on to examine whether the combination of epidrugs was effective in intrinsically IMiD-resistant cell lines.

[6] = test system: KMS12-BM; assay: as above; conditions: baseline IMiD resistance (Figure 13C)
Protocol: as §3, §4

[7] = test system: JJN3; assay: Cell proliferation, XTT dye absorbance (IC50 of IMiDs); type: cell-based; conditions: Homo sapiens, JJN-3, 72 h, XTT absorbance 3 days after treatment with IMiDs
From the text: (§1) A total of seven commercially available human myeloma cell lines (JJN3, OPM2, RPMI-8226, U266, NCI-H929, LP-1, KMS12-BM) were purchased from DSMZ (Leibniz Institute DSMZ-German Collection of Microorganisms and Cell Cultures, Braunschweig, Germany).
(§2) First, the present inventors tested the sensitivity of all HMCL to both lenalidomide and pomalidomide by generating dose-response curves and calculating the IC50 of both drugs for each cell line (given in tables below).

[8] = test system: KMS12-BM; assay: as above; type: cell-based; conditions: Homo sapiens, KMS-12-BM, 72 h, XTT absorbance 3 days after treatment with IMiDs
From the text: as §1, §2

[9] = test system: NCI-H929; assay: as above; type: cell-based; conditions: Homo sapiens, 72 h, XTT absorbance 3 days after treatment with IMiDs
From the text: as §1, §2

[10] = test system: OPM2; assay: as above; type: cell-based; conditions: Homo sapiens, OPM-2, 72 h, XTT absorbance 3 days after treatment with IMiDs
From the text: as §1, §2

[11] = test system: RPMI-8226; assay: as above; type: cell-based; conditions: Homo sapiens, RPMI-8226, 72 h, XTT absorbance 3 days after treatment with IMiDs
From the text: as §1, §2

[12] = test system: U266; assay: as above; type: cell-based; conditions: Homo sapiens, U-266, 72 h, XTT absorbance 3 days after treatment with IMiDs
From the text: as §1, §2

With `Nc1ncn([C@@H]2O[C@H](CO)[C@@H](O)[C@H]2O)c(=O)n1` [5-Azacytidine, 4-amino-1-beta-D-ribofuranosyl-1,3,5-triazin-2(1H)-one] the “resensitization to IMiDs (IMiD sensitivity)” value [1] was “did not restore IMiD sensitivity” and the “expression of CRBN” value [2] was “remained low and unchanged”.
For `Cc1cc(C)c(CNC(=O)c2cc(-c3ccc(CN4CCOCC4)cc3)cc3c2cnn3C2CCCC2)c(=O)[nH]1` [EPZ005687], the “selectivity for EZH2 compared to EZH1” value [3] is given as 50 fold.
For `CCN(c1cc(-c2ccc(CN3CCOCC3)cc2)cc(C(=O)NCc2c(C)cc(C)[nH]c2=O)c1C)C1CCOCC1` [EPZ-6438, N-((4,6-dimethyl-2-oxo-1,2-dihydropyridin-3-yl)methyl)-5-(ethyl(tetrahydro-2H-pyran-4-yl)amino)-4-methyl-4'-(morpholinomethyl)-[1,1'-biphenyl]-3-carboxamide], the “resensitization to IMiDs (IMiD sensitivity)” value [1] was “did not restore IMiD sensitivity”, the “expression of CRBN” value [2] was “remained low and unchanged” and the “resensitization to lenalidomide and pomalidomide (apoptosis)” value [4] was “minor resensitization effect”. For the same compound, the “sensitization to lenalidomide and pomalidomide” value [5] was “able to render the cells sensitive to both lenalidomide and pomalidomide” and the “sensitization to lenalidomide and pomalidomide” value [6] was “able to render the cells sensitive to both lenalidomide and pomalidomide”.
`Nc1cccc2c1CN(C1CCC(=O)NC1=O)C2=O` (centres unmarked) [Lenalidomide] showed an IC50 [7] of 136 µM, an IC50 [8] of 20.8 µM and an IC50 [9] of 0.563 µM. The IC50 [10] was 5.01 µM, the IC50 [11] was 118 µM and the IC50 [12] was 68.1 µM.
Work on `Nc1cccc2c1C(=O)N(C1CCC(=O)NC1=O)C2=O` (centres unmarked) [Pomalidomide] yielded an IC50 [7] of 87.3 µM, an IC50 [8] of 15.2 µM and an IC50 [9] of 0.003 µM. For the same compound, the IC50 [10] was 2.01 µM, the IC50 [11] was 98.3 µM and the IC50 [12] was 60.5 µM.
